# Assay results reported in patent publication US20150094474A1, “AGRICULTURAL CHEMICALS” (Redx Pharma Ltd., priority 2012, published 2015).
# Columns and labels:
# barley = test: Herbicidal bioassay, barley (% necrosis); type: in vivo
# Description: (§1) A laboratory bioassay was conducted to screen ten compounds (Fluazifop (25); Ethyl fluazifop (62); five fluazifop analogues: 27, 28, 63, 64 and 65; mesofulfuron (6); and two mesosulfuron analogues: 8 and 61. for activity against Lolium perenne, barley, peas and Chinese cabbage. Compounds were diluted in DMSO. Controls were performed using both DMSO and water.
# (§2) Plants were obtained as seeds and were grown to the 2-4 true leaf stage. Plants were grown individually in seed trays. Each plant (in an approximately 3 cm diameter plug) was then detached from the tray for spraying. Environmental conditions were closely monitored and recorded and were within the optimal range of the target species.
# (§3) The compounds were screened at a range of six concentrations, eg. 0.05%, 0.01%, 0.005%, 0.001%, 0.0005% and 0.0001%. Treatments will be applied directly onto the plants, using a potter tower.
# (§4) One plant of each type will be sprayed using a potter tower. The 4 different types of weeds will be placed in a 10 cm diameter area underneath the potter sprayer and sprayed simultaneously. The growth of the plants and any Phytotoxicity effects will then be assessed at specified growth intervals, according to EPPO guideline PP1/135. Five replicates will be performed for each treatment, for each species.
# peas = test: Herbicidal bioassay, peas (% necrosis); type: in vivo
# Description: as §1, §2, §3, §4
smiles,measurement,setting,value
"CC(C=O)Oc1ccc(Oc2ccc(C(F)(F)F)cn2)cc1 (stereo not drawn) [Compound 28, 2-[4-[[5-(Trifluoromethyl)-2-pyridyl]oxy]phenoxy]propanal]",Sum of % necrosis in barley,"barley; Dose 0.000001, Day 0",C (less than 50% necrosis)
same,Sum of % necrosis in barley,"barley; Dose 0.000001, Day 1",C (less than 50% necrosis)
same,Sum of % necrosis in barley,"barley; Dose 0.000001, Day 3",C (less than 50% necrosis)
same,Sum of % necrosis in barley,"barley; Dose 0.000001, Day 7",C (less than 50% necrosis)
same,Sum of % necrosis in barley,"barley; Dose 0.000001, Day 10",C (less than 50% necrosis)
same,Sum of % necrosis in barley,"barley; Dose 0.000001, Day 14",C (less than 50% necrosis)
same,Sum of % necrosis in barley,"barley; Dose 0.000001, Day 21",C (less than 50% necrosis)
same,Sum of % necrosis in barley,"barley; Dose 0.000005, Day 0",C (less than 50% necrosis)
same,Sum of % necrosis in barley,"barley; Dose 0.000005, Day 1",C (less than 50% necrosis)
same,Sum of % necrosis in barley,"barley; Dose 0.000005, Day 3",C (less than 50% necrosis)
same,Sum of % necrosis in barley,"barley; Dose 0.000005, Day 7",C (less than 50% necrosis)
same,Sum of % necrosis in barley,"barley; Dose 0.000005, Day 10",C (less than 50% necrosis)
same,Sum of % necrosis in barley,"barley; Dose 0.000005, Day 14",C (less than 50% necrosis)
same,Sum of % necrosis in barley,"barley; Dose 0.000005, Day 21",C (less than 50% necrosis)
same,Sum of % necrosis in barley,"barley; Dose 0.00001, Day 0",C (less than 50% necrosis)
same,Sum of % necrosis in barley,"barley; Dose 0.00001, Day 1",C (less than 50% necrosis)
same,Sum of % necrosis in barley,"barley; Dose 0.00001, Day 3",C (less than 50% necrosis)
same,Sum of % necrosis in barley,"barley; Dose 0.00001, Day 7",C (less than 50% necrosis)
same,Sum of % necrosis in barley,"barley; Dose 0.00001, Day 10",C (less than 50% necrosis)
same,Sum of % necrosis in barley,"barley; Dose 0.00001, Day 14",C (less than 50% necrosis)
same,Sum of % necrosis in barley,"barley; Dose 0.00001, Day 21",C (less than 50% necrosis)
same,Sum of % necrosis in barley,"barley; Dose 0.00005, Day 0",C (less than 50% necrosis)
same,Sum of % necrosis in barley,"barley; Dose 0.00005, Day 1",C (less than 50% necrosis)
same,Sum of % necrosis in barley,"barley; Dose 0.00005, Day 3",C (less than 50% necrosis)
same,Sum of % necrosis in barley,"barley; Dose 0.00005, Day 7",C (less than 50% necrosis)
same,Sum of % necrosis in barley,"barley; Dose 0.00005, Day 10",C (less than 50% necrosis)
same,Sum of % necrosis in barley,"barley; Dose 0.00005, Day 14",C (less than 50% necrosis)
same,Sum of % necrosis in barley,"barley; Dose 0.00005, Day 21",C (less than 50% necrosis)
same,Sum of % necrosis in barley,"barley; Dose 0.0001, Day 0",C (less than 50% necrosis)
same,Sum of % necrosis in barley,"barley; Dose 0.0001, Day 1",C (less than 50% necrosis)
same,Sum of % necrosis in barley,"barley; Dose 0.0001, Day 3",C (less than 50% necrosis)
same,Sum of % necrosis in barley,"barley; Dose 0.0001, Day 7",C (less than 50% necrosis)
same,Sum of % necrosis in barley,"barley; Dose 0.0001, Day 10",C (less than 50% necrosis)
same,Sum of % necrosis in barley,"barley; Dose 0.0001, Day 14",C (less than 50% necrosis)
same,Sum of % necrosis in barley,"barley; Dose 0.0001, Day 21",B (50%-80% necrosis)
same,Sum of % necrosis in barley,"barley; Dose 0.0005, Day 0",C (less than 50% necrosis)
same,Sum of % necrosis in barley,"barley; Dose 0.0005, Day 1",C (less than 50% necrosis)
same,Sum of % necrosis in barley,"barley; Dose 0.0005, Day 3",C (less than 50% necrosis)
same,Sum of % necrosis in barley,"barley; Dose 0.0005, Day 7",C (less than 50% necrosis)
same,Sum of % necrosis in barley,"barley; Dose 0.0005, Day 10",C (less than 50% necrosis)
same,Sum of % necrosis in barley,"barley; Dose 0.0005, Day 14",C (less than 50% necrosis)
same,Sum of % necrosis in barley,"barley; Dose 0.0005, Day 21",A (over 80% necrosis)
same,Sum of % necrosis in Peas,"peas; Dose 0.000001, Day 0",C (less than 50% necrosis)
same,Sum of % necrosis in Peas,"peas; Dose 0.000001, Day 1",C (less than 50% necrosis)
same,Sum of % necrosis in Peas,"peas; Dose 0.000001, Day 3",C (less than 50% necrosis)
same,Sum of % necrosis in Peas,"peas; Dose 0.000001, Day 7",C (less than 50% necrosis)
same,Sum of % necrosis in Peas,"peas; Dose 0.000001, Day 10",C (less than 50% necrosis)
same,Sum of % necrosis in Peas,"peas; Dose 0.000001, Day 14",C (less than 50% necrosis)
same,Sum of % necrosis in Peas,"peas; Dose 0.000001, Day 21",B (50%-80% necrosis)
same,Sum of % necrosis in Peas,"peas; Dose 0.000005, Day 0",C (less than 50% necrosis)
same,Sum of % necrosis in Peas,"peas; Dose 0.000005, Day 1",C (less than 50% necrosis)
same,Sum of % necrosis in Peas,"peas; Dose 0.000005, Day 3",C (less than 50% necrosis)
same,Sum of % necrosis in Peas,"peas; Dose 0.000005, Day 7",B (50%-80% necrosis)
same,Sum of % necrosis in Peas,"peas; Dose 0.000005, Day 10",B (50%-80% necrosis)
same,Sum of % necrosis in Peas,"peas; Dose 0.000005, Day 14",B (50%-80% necrosis)
same,Sum of % necrosis in Peas,"peas; Dose 0.000005, Day 21",A (over 80% necrosis)
same,Sum of % necrosis in Peas,"peas; Dose 0.00001, Day 0",C (less than 50% necrosis)
same,Sum of % necrosis in Peas,"peas; Dose 0.00001, Day 1",C (less than 50% necrosis)
same,Sum of % necrosis in Peas,"peas; Dose 0.00001, Day 3",C (less than 50% necrosis)
same,Sum of % necrosis in Peas,"peas; Dose 0.00001, Day 7",C (less than 50% necrosis)
same,Sum of % necrosis in Peas,"peas; Dose 0.00001, Day 10",C (less than 50% necrosis)
same,Sum of % necrosis in Peas,"peas; Dose 0.00001, Day 14",A (over 80% necrosis)
same,Sum of % necrosis in Peas,"peas; Dose 0.00001, Day 21",A (over 80% necrosis)
same,Sum of % necrosis in Peas,"peas; Dose 0.00005, Day 0",C (less than 50% necrosis)
same,Sum of % necrosis in Peas,"peas; Dose 0.00005, Day 1",C (less than 50% necrosis)
same,Sum of % necrosis in Peas,"peas; Dose 0.00005, Day 3",C (less than 50% necrosis)
same,Sum of % necrosis in Peas,"peas; Dose 0.00005, Day 7",C (less than 50% necrosis)
same,Sum of % necrosis in Peas,"peas; Dose 0.00005, Day 10",C (less than 50% necrosis)
same,Sum of % necrosis in Peas,"peas; Dose 0.00005, Day 14",A (over 80% necrosis)
same,Sum of % necrosis in Peas,"peas; Dose 0.00005, Day 21",A (over 80% necrosis)
same,Sum of % necrosis in Peas,"peas; Dose 0.0001, Day 0",C (less than 50% necrosis)
same,Sum of % necrosis in Peas,"peas; Dose 0.0001, Day 1",C (less than 50% necrosis)
same,Sum of % necrosis in Peas,"peas; Dose 0.0001, Day 3",C (less than 50% necrosis)
same,Sum of % necrosis in Peas,"peas; Dose 0.0001, Day 7",C (less than 50% necrosis)
same,Sum of % necrosis in Peas,"peas; Dose 0.0001, Day 10",C (less than 50% necrosis)
same,Sum of % necrosis in Peas,"peas; Dose 0.0001, Day 14",A (over 80% necrosis)
same,Sum of % necrosis in Peas,"peas; Dose 0.0001, Day 21",A (over 80% necrosis)
same,Sum of % necrosis in Peas,"peas; Dose 0.0005, Day 0",C (less than 50% necrosis)
same,Sum of % necrosis in Peas,"peas; Dose 0.0005, Day 1",C (less than 50% necrosis)
same,Sum of % necrosis in Peas,"peas; Dose 0.0005, Day 3",C (less than 50% necrosis)
same,Sum of % necrosis in Peas,"peas; Dose 0.0005, Day 7",B (50%-80% necrosis)
same,Sum of % necrosis in Peas,"peas; Dose 0.0005, Day 10",B (50%-80% necrosis)
same,Sum of % necrosis in Peas,"peas; Dose 0.0005, Day 14",A (over 80% necrosis)
same,Sum of % necrosis in Peas,"peas; Dose 0.0005, Day 21",A (over 80% necrosis)
